# Assay results reported in US10941174B2, “Non-caloric sweetener” (Conagen Inc., priority 2014, dated 2021).
# Assays:
# [1] = background statement; cited from earlier work
# [2] = Solubility in water of Reb D3 compared to Reb D; type: physicochemical
# Excerpt: In this Example, the solubility of Reb D3 was compared to Reb D.
# [3] = Sensory evaluation (taste test) of Reb D3 against sucrose controls by a panel of nine volunteers; type: in vivo, human; conditions: for overall % sweetness equivalence (SE) average: room temperature, vs 1.0%, 3.0%, 6.0% sucrose (w/v), nine volunteers
# Description: In this Example, a taste test was conducted on Reb D3.
# Sensory evaluation of Reb D3 was performed using sucrose as a control. The sucrose sample purchased from Sigma-Aldrich and prepared control samples at three different concentrations of 1.0%, 3.0%, and 6.0% sucrose in bottled water (w/v) at room temperature. The steviol glycoside Reb D3 at 300, and 600 ppm for sensory evaluation was prepared by adding corresponding mass into a 1000 mL of bottled water. The mixture was stirred at room temperature and the steviol glycoside sample was then evaluated against several control sucrose samples at 1.0%, 3.0%, and 6.0% by a panel of nine volunteers.
smiles,measurement,setting,value
C=C1C[C@@]23CC[C@H]4[C@@](C)(CCC[C@@]4(C)C(=O)O[C@@H]4O[C@H](CO)[C@@H](O)[C@H](O)[C@H]4O)[C@@H]2CC[C@]1(O[C@@H]1O[C@H](CO)[C@@H](O)[C@H](O[C@@H]2O[C@H](CO)[C@@H](O)[C@H](O)[C@H]2O)[C@H]1O[C@@H]1O[C@@H](C)[C@H](O)[C@@H](O)[C@H]1O)C3 [Rebaudioside C],times sweeter than sucrose,[1],40-60 times
C=C1C[C@@]23CC[C@H]4[C@@](C)(CCC[C@@]4(C)C(=O)O[C@@H]4O[C@H](CO)[C@@H](O)[C@H](O)[C@H]4O)[C@@H]2CC[C@]1(O[C@@H]1O[C@H](CO)[C@@H](O)[C@H](O)[C@H]1O[C@@H]1O[C@H](CO)[C@@H](O)[C@H](O)[C@H]1O)C3 [Stevioside],after-taste,[1],bitter after-taste
same,times sweeter than sucrose,[1],100-150 times
C=C1C[C@@]23CC[C@H]4[C@@](C)(CCC[C@@]4(C)C(=O)O[C@@H]4O[C@H](CO)[C@@H](O)[C@H](O)[C@H]4O)[C@@H]2CC[C@]1(O[C@@H]1O[C@H](CO)[C@@H](O)[C@H](O[C@@H]2O[C@H](CO)[C@@H](O)[C@H](O)[C@H]2O)[C@H]1O[C@@H]1O[C@H](CO)[C@@H](O)[C@H](O)[C@H]1O)C3 [Rebaudioside A],after-taste,[1],less of an after-taste than stevioside
"C=C1C[C@@]23CC[C@H]4[C@@](C)(CCC[C@@]4(C)C(=O)O[C@@H]4O[C@H](CO)[C@@H](O)[C@H](O)[C@H]4O[C@@H]4O[C@H](CO)[C@@H](O)[C@H](O)[C@H]4O)[C@@H]2CC[C@]1(O[C@@H]1O[C@H](CO)[C@@H](O)[C@H](O[C@@H]2O[C@H](CO)[C@@H](O)[C@H](O)[C@H]2O)[C@H]1O[C@@H]1O[C@H](CO)[C@@H](O)[C@H](O)[C@H]1O)C3 [Reb D, Rebaudioside D]",dissolution in water when heated,"[2]; 0.5 mM, 1 mM, 1.5 mM, 2 mM, 5 mM and 10 mM, heated at 30° C. for 72 hours",did not dissolve
same,concentration that totally dissolved in water,[2]; tested 0.25-10 mM in water,250 µM
"C=C1C[C@@]23CCC4[C@](C)(C(=O)OC5OC(CO)C(O)C(O)C5OC5OC(CO)C(O)C(O)C5O)CCC[C@@]4(C)[C@@H]2CCC1(OC1OC(COC2OC(CO)C(O)C(O)C2O)C(O)C(O)C1OC1OC(CO)C(O)C(O)C1O)C3 (stereo partly drawn) [Reb D3, 13-[(2-O-β-D-glucopyranosyl-6-O-β-D-glucopyranosyl-β-D-glucopyranosyl)oxy] ent-kaur-16-en-19-oic acid-(2-O-β-D-glucopyranosyl-β-D-glucopyranosyl) ester]",overall % sweetness equivalence (SE) average,[3]; 300 ppm in bottled water,about 2.4%
same,overall % sweetness equivalence (SE) average,[3]; 600 ppm in bottled water,~5.4%
same,times sweeter to sucrose,[3]; from SE at 300 and 600 ppm,80-90 times
same,solubility in water compared with Reb D,[2],higher solubility in water than does Reb D
same,dissolution in water,"[2]; solutions of 0.25 mM, 0.5 mM, 1 mM, 1.5 mM, 2 mM, 5 mM and 10 mM in water",completely dissolved in water immediately
C=C1C[C@@]23CC[C@H]4[C@@](C)(CCC[C@@]4(C)C(=O)O[C@@H]4O[C@H](CO)[C@@H](O)[C@H](O)[C@H]4O)[C@@H]2CC[C@]1(O[C@@H]1O[C@H](CO)[C@@H](O)[C@H](O)[C@H]1O[C@@H]1O[C@@H](C)[C@H](O)[C@@H](O)[C@H]1O)C3 [Dulcoside A],times sweeter than sucrose,[1],about 30 times
"C=C1C[C@@]23CCC4[C@](C)(C(=O)OC5OC(CO)C(O)C(O)C5OC5OC(CO)C(O)C(O)C5O)CCC[C@@]4(C)[C@@H]2CCC1(OC1OC(CO)C(O)C(O)C1OC1OC(CO)C(O)C(O)C1O)C3 (stereo partly shown) [rebaudioside E, Rebaudioside E]",after-taste,[1],less of an after-taste than stevioside
